Test results as given in PubChem BioAssay (NCI).
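Cultured in 96-well plates, cells were exposed to test compound for 48 hours across five concentrations. TGI is the concentration that stops growth completely.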

Key:
Experiment in all cases: growth of human tumour cells (NCI), 48 h
[1] = test system: OVCAR-4 ovarian
[2] = test system: SNB-75 CNS
[3] = test system: NCI-H226 lung
[4] = test system: OVCAR-3 ovarian
[5] = test system: HCT-116 colon
[6] = test system: SK-MEL-2 melanoma
[7] = test system: MDA-MB-435
[8] = test system: K-562 leukemia
[9] = test system: A498 renal
[10] = test system: HCT-15 colon
[11] = test system: KM12 colon
[12] = test system: UACC-257 melanoma
[13] = test system: RPMI-8226 leukemia
[14] = test system: MALME-3M melanoma
[15] = test system: CCRF-CEM leukemia
[16] = test system: SN12C renal
[17] = test system: OVCAR-8 ovarian
[18] = test system: M14 melanoma
[19] = test system: NCI-H522 lung

Structure (SMILES)	TGI [1] [µM]	TGI [2] [µM]	TGI [3] [µM]	TGI [4] [µM]	TGI [5] [µM]	TGI [6] [µM]	TGI [7] [µM]	TGI [8] [µM]	TGI [9] [µM]	TGI [10] [µM]	TGI [11] [µM]	TGI [12] [µM]	TGI [13] [µM]	TGI [14] [µM]	TGI [15] [µM]	TGI [16] [µM]	TGI [17] [µM]	TGI [18] [µM]	TGI [19] [µM]
Nc1cnc2c(c1)c(=O)nc1n2CCS1	> 100	> 100	> 100	> 100	> 100	> 100	> 100	> 100	> 100	> 100	> 100	> 100	> 100	> 100	> 100	> 100	> 100	–	–
O=C(O)c1cc(N(Cc2ccccc2O)Cc2cc(O)ccc2O)ccc1O	> 100	–	> 100	> 100	> 100	> 100	> 100	> 100	> 100	> 100	> 100	> 100	> 100	> 100	> 100	> 100	> 100	> 100	–
CCOC(=O)CCc1c(C)[nH]c2c(C)c3c([nH]c4ccc(Cl)cc43)c(C)c2c1=O	41.4	30.9	46.5	–	38.7	14.4	> 100	–	33	54.5	87	30.5	–	37.1	> 100	–	83.8	18.5	24.1
Cc1cc(=O)oc2c(CNC(C(=O)O)C(C)O)c(O)ccc12 (stereo unspecified)	> 100	> 100	> 100	> 100	> 100	> 100	> 100	> 100	–	> 100	> 100	> 100	> 100	> 100	> 100	> 100	> 100	> 100	> 100
CCOC(=O)CCC(NC(=O)c1ccc(Oc2nc3ccccc3nc2C(=O)OCC)cc1)C(=O)OCC (stereo unspecified)	> 100	98.1	–	> 100	> 100	> 100	> 100	–	–	> 100	> 100	> 100	> 100	–	> 100	> 100	> 100	> 100	> 100
CN(CC#N)C(=O)Cc1ccc([N+](=O)[O-])cc1	> 10	–	> 10	> 10	> 10	> 10	> 10	> 10	> 10	> 10	> 10	> 10	> 10	> 10	> 10	> 10	> 10	> 10	–
c1ccc2c3nnc(c2c1)SCCSCCCSCCS3	25.8	18.5	> 100	> 100	> 100	> 100	> 100	> 100	92.6	> 100	> 100	> 100	–	77.3	> 100	> 100	> 100	> 100	> 100
NC(=O)C(=CN1CC(=O)NC1=S)C(N)=O	> 100	> 100	> 100	> 100	> 100	> 100	> 100	–	> 100	> 100	> 100	> 100	–	–	–	> 100	> 100	> 100	–
O=C(N/C(=C/c1ccc(Cl)cc1)c1nc2ccccc2c(=O)n1Nc1ccc([N+](=O)[O-])cc1[N+](=O)[O-])c1ccccc1	> 100	> 100	> 100	> 100	> 100	–	> 100	> 100	–	> 100	> 100	> 100	–	> 100	> 100	> 100	> 100	> 100	> 100
CC(C)(C)OC(=O)N/N=C(/N)c1ccccc1	> 100	> 100	> 100	> 100	> 100	> 100	> 100	> 100	–	> 100	> 100	> 100	> 100	> 100	> 100	> 100	> 100	> 100	> 100
COc1ccccc1OC(=O)/C=C/c1ccccc1	> 100	> 100	> 100	> 100	> 100	> 100	> 100	–	> 100	> 100	> 100	> 100	> 100	> 100	–	> 100	> 100	> 100	> 100
NCCc1ccc2c(c1)C(=O)c1c(O)ccc(O)c1C2=O	> 100	42.3	> 100	5.66	> 40.3	> 100	> 100	> 64.2	> 100	> 100	> 100	> 100	> 100	4.75	> 100	–	9.19	> 100	–
CCOC(=O)C(Cc1cn(S(=O)(=O)c2ccc(C)cc2)cn1)P(=O)(OCC)OCC (stereo unspecified)	> 100	> 100	> 100	> 100	> 100	> 100	> 100	> 100	–	> 100	> 100	> 100	> 100	> 100	> 100	> 100	> 100	> 100	> 100
COc1ccc(Nc2nc3ccccc3nc2C(=O)O)cc1	> 100	> 100	–	> 100	> 100	> 100	> 100	> 100	> 100	> 100	> 100	> 100	–	> 100	> 100	> 100	> 100	> 100	> 100
COc1ccc(C(=O)c2ccc(-n3c4ccccc4c4ccc5c(c43)C(=O)C=CC5=O)cc2)cc1	6.37	> 30.9	69.4	2.68	2.77	11.3	3.14	> 100	5.09	6.07	10	7.05	> 100	–	–	4.01	–	7.45	0.936
CC(=O)O/C=C\OC1CCCC1	> 100	> 100	> 100	> 100	–	> 100	> 100	> 100	> 100	> 100	> 100	> 100	> 100	> 100	> 100	–	> 100	> 100	> 100
O=C(/C=C/c1ccc(F)c(F)c1)OCCc1ccccc1	> 100	> 100	> 100	> 100	> 100	> 100	> 100	> 100	–	> 100	> 100	> 100	> 100	> 100	> 100	> 100	> 100	> 100	> 100
Cc1cc2c(=O)[nH]nc(N)c2c(N)n1	> 100	–	> 100	–	> 100	> 100	> 100	> 100	> 100	> 100	> 100	> 100	> 100	> 100	> 100	> 100	> 100	> 100	> 100
COC(=O)/C(=C\C(=O)c1ccc(Br)cc1)NN=C(c1ccccc1)c1ccccc1	> 10	> 10	–	–	–	–	> 10	> 10	–	> 10	> 10	> 10	> 10	> 10	> 10	> 10	> 10	> 10	–
O=c1cc(-c2ccccc2Cl)[nH]c2cc3c(cc12)OCO3	> 9.75	> 100	0.689	0.4	16	3.74	0.0313	–	4.16	0.355	> 31.6	> 72	0.565	> 100	0.381	29.1	9.88	24.3	0.489
O=C(NC/C(Cl)=C/Cl)Nc1cccc2c1CCCC2	> 100	> 100	> 100	> 100	> 100	> 100	> 100	–	> 100	> 100	> 100	> 100	> 100	> 100	–	> 100	> 100	> 100	> 100
COc1ccc2[nH]c3c(C)c4cnccc4c(C)c3c2c1	5.17	> 10	9.27	2.43	2.5	> 10	2.84	> 10	–	3.4	2.83	> 10	7.11	2.82	> 10	> 10	2.2	2.54	4.43
Cc1cc(Br)cc(C)c1NC(=O)C(=O)C1C(=O)C(CC2C(=O)c3ccccc3C2=O)C(=O)CC1(C)C (stereo unspecified)	> 100	> 100	> 100	> 100	> 100	> 100	> 100	–	–	> 100	> 100	> 100	–	–	95.7	> 100	> 100	> 100	> 100
CC1C(=O)C23OC[C@@]1(C)C1(O)CC[C@@H](C)[C@]21CC3=O (stereo partly specified)	> 100	> 100	> 100	> 100	> 100	> 100	> 100	> 100	–	> 100	> 100	> 100	> 100	> 100	> 100	> 100	> 100	> 100	> 100
CCOC(=O)c1c(C(F)(F)F)oc2c1ccc1nc3nonc3nc12	24.9	30	36.1	30.4	32.1	33.8	–	13.9	30.7	32.6	51.3	27.9	> 42.3	32	5.69	31.7	30.4	21	29.3
COP(=O)(C(/C=C/c1ccccc1)OC(C)=O)[C@@H]1CCCC[C@H]1N(CC(C)(C)C)C(C)=O (stereo partly specified)	33.1	22.7	27	31.9	25.6	29.8	36.2	53	–	61.6	> 100	31	–	33.4	67.2	30.2	35.6	28.8	27.9
CC1(C)O[C@@H](CP(c2ccccc2)c2ccccc2)[C@H](CP(c2ccccc2)c2ccccc2)O1	> 100	27.9	51.1	33.6	20.9	–	52.4	–	39.1	44.5	54.7	30.7	59.1	20.9	> 100	18.7	20.5	22.7	12.8
O=C(CCc1cccc(O)c1)NCCc1cccc(OCc2ccccc2)c1	63.6	–	31.5	26	30.3	32.3	29.6	71.3	> 55.2	49.3	21.3	34.2	> 60.1	39.2	42.4	45.1	67.9	30.2	33.4
